≈ marks a conversion by molar mass, not a printed value.
Tests used:
[1] = system: Pseudomonas aeruginosa MB5890 (oprD+, efflux−); format: cell-based; conditions: MB 5890, OprD+
Text: (§1) The strain background is Pseudomonas aeruginosa PAO1. A wild-type (MB5919) and an isogenic strain in which multiple efflux pumps have been disrupted genetically were used. The MBL IMP-1, obtained from a clinical isolate was introduced into the strain pair by the following process:
(§2) Plasmid DNA (encoding IMP-1) was extracted from CL 5673 (IMP-1, P. aeruginosa clinical strain) by standard techniques. The plasmid DNA was transformed into parental MB5919 (oprD+, efflux+, inducible AmpC) and MB5890 (oprD+, efflux−, inducible AmpC) isogenic strains by electroporation. These transformed strains were plated onto cation-adjusted Muller-Hinton agar plates containing ceftazidime at 32 μg/mL (MB5919) and 16 μg/mL (MB5890) to select for those cells in which the IMP-1-expressing plasmid was introduced successfully, resulting in resistance to ceftazidime.
(§3) Minimum inhibitory concentrations of sentinel antibiotics were performed to quality control the new strains.

[2] = system: Pseudomonas aeruginosa MB9798 (MB5919 Trans IMP1 plasmid, efflux+); format: cell-based; conditions: MB5919 Trans IMP1 plasmid (MB 9798), OprD+
Text: as §1, §2, §3

[3] = system: Pseudomonas aeruginosa MB9799 (MB5890 Trans IMP1 plasmid, efflux−); format: cell-based; conditions: MB 5890 Trans IMP1 plasmid (MB 9799), OprD+
Text: as §1, §2, §3

[4] = system: Pseudomonas aeruginosa PAO1 MB5919 (oprD+, efflux+); format: cell-based
Text: as §1, §2, §3

[5] = system: Pseudomonas aeruginosa MB9861 (MB5919 Trans pFlp-Vim1 plasmid, efflux+); format: cell-based; conditions: MB5919 Trans pFlp-Vim1 plasmid (MB 9861), OprD+
[6] = system: Pseudomonas aeruginosa MB9862 (MB5890 trans pFlp-Vim1 plasmid, efflux−); format: cell-based; conditions: MB 5890 trans pFlp-Vim1 plasmid (MB 9862), OprD+
[7] = system: Pseudomonas aeruginosa MB5919 Trans pFlp-Vim2 plasmid (efflux+); format: cell-based; conditions: MB 5919 Trans pFlp-Vim2 plasmid, OprD+
[8] = system: Pseudomonas aeruginosa MB5890 Trans pFlp-Vim2 plasmid (efflux−); format: cell-based; conditions: MB 5890 Trans pFlp-Vim2 plasmid, OprD+
NDM-1 = NDM-1 (Klebsiella pneumoniae, UniProt C7C422); test: Enzyme activity: determination of IC50, fluorescence assay with CCF2-FA substrate (NDM-1); format: biochemical; conditions: 1 pM enzyme, 1.25 μM CCF2-FA, 2 hours at 25° C.; read-out: NDM1 IC50
NDM-1, sequence (C7C422 29-270, looked up, species assumed): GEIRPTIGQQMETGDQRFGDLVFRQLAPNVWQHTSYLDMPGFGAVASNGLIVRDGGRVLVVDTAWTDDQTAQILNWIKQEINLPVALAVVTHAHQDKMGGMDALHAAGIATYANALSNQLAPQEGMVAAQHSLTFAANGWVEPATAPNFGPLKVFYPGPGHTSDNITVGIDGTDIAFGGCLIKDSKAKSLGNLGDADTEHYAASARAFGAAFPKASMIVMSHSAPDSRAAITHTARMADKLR
Summary of the method: (§4)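 Metallo-β-lactamase activity read by fluorescence against CCF2-FA (1.25 μM final) in 100 mM KH2PO4 pH 7 with 0.005% Tween-20 and 10 μM ZnSO4; enzyme final at 1 pM NDM-1, 2 pM IMP-1 or 30 pM VIM-1. Inhibitor at 20 to 0.00063 μM, 2 h at 25° C; IC50 by 4-parameter fit.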

IMP-1 = IMP-1 (Serratia marcescens, UniProt P52699); test: Enzyme activity: determination of IC50, fluorescence assay with CCF2-FA substrate (IMP-1); format: biochemical; conditions: 2 pM enzyme, 1.25 μM CCF2-FA, 2 hours at 25° C.; read-out: IMP1 IC50
IMP-1, sequence (P52699 19-246, looked up, species assumed): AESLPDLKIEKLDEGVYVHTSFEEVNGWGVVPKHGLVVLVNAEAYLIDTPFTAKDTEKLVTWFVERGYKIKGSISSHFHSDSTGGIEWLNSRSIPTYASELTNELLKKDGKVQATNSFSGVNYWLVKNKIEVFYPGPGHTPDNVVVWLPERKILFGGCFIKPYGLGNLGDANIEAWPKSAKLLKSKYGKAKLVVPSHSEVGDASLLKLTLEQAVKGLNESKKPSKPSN
Summary of the method: as §4

VIM-1 = VIM-1 (Pseudomonas aeruginosa, UniProt A0A0F7KYQ8); test: Enzyme activity: determination of IC50, fluorescence assay with CCF2-FA substrate (VIM-1); format: biochemical; conditions: 30 pM enzyme, 1.25 μM CCF2-FA, 2 hours at 25° C.; read-out: VIM1 IC50
Summary of the method: as §4

VIM-2 = VIM-2 (Escherichia coli, UniProt Q5U7L7); test: Enzyme activity: determination of IC50 (VIM-2); format: biochemical; conditions: read-out: VIM2 IC50
[9] = system: Escherichia coli expressing NDM-1 (CLB30016); test: Antibiotic potentiation activity: synergistic concentration (MITC95) with imipenem; format: cell-based; conditions: imipenem 1 μg/mL; lowest concentration inhibiting 95% of growth; 35° C., 22-24 hours
Summary of the method: (§5)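 Clinical MBL-expressing strains diluted into 1.1× CAMHB were incubated with compound plus imipenem at 1 μg/mL for 22–24 h at 35 °C, then absorbance was read. MITC95 is the lowest compound concentration giving 95% growth inhibition in the presence of imipenem.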

[10] = system: Klebsiella pneumoniae expressing VIM-1 (IHMA599644); test: as above; format: cell-based; conditions: imipenem 1 μg/mL; lowest concentration inhibiting 95% of growth; 35° C., 22-24 hours
Summary of the method: as §5

[11] = system: Serratia marcescens expressing IMP-1 (CL5741); test: as above; format: cell-based; conditions: imipenem 1 μg/mL; lowest concentration inhibiting 95% of growth; 35° C., 22-24 hours
Summary of the method: as §5

[12] = system: P. aeruginosa MB9798 (efflux WT, IMP-1); test: Efflux: concentration of MBL inhibitor restoring susceptibility to imipenem (MITC95), efflux+ strain; format: cell-based, Pseudomonas aeruginosa; conditions: imipenem at 2 μg/mL in the presence of a class A, C, D serine β-lactamase inhibitor closely related to relebactam
Summary of the method: (§6)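 Isogenic P. aeruginosa PAO1 strains, efflux+ and efflux−, transformed with IMP-1 plasmid, were tested by microbroth MIC with fixed imipenem, usually at CLSI breakpoint, plus fixed class A/C β-lactamase inhibitor against AmpC. MBL inhibitor was serially titrated; the concentration restoring susceptibility was recorded.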

[13] = system: P. aeruginosa MB9799 (efflux mutant, IMP-1); test: Efflux: concentration of MBL inhibitor restoring susceptibility to imipenem (MITC95), efflux− strain; format: cell-based, Pseudomonas aeruginosa; conditions: imipenem at 2 μg/mL in the presence of a class A, C, D serine β-lactamase inhibitor closely related to relebactam
Summary of the method: as §6

Row | Compound | MIC [1] | MIC [2] | MIC [3] | MIC [4] | MIC [5] | MIC [6] | MIC [7] | MIC [8] | IC50 (NDM-1) | IC50 (IMP-1) | IC50 (VIM-1) | IC50 (VIM-2) | CLB30016 E.coli MITC95 NDM [9] | IHMA599644 K.pneumoniae MITC95 uM VIM [10] | CL5741 S.marcescens MITC95 uM IMP [11] | MB9798 MITC95 P. aeruginosa Efflux WT [12] | MB9799 MITC95 P. aeruginosa Efflux Mutant [13]
1 | CC[C@H]1OC(=O)[C@H](C)[C@@H](O[C@H]2C[C@@](C)(OC)[C@@H](O)[C@H](C)O2)[C@H](C)[C@@H](O[C@@H]2O[C@H](C)C[C@H](N(C)C)[C@H]2O)[C@](C)(O)C[C@@H](C)CN(C)[C@H](C)[C@@H](O)[C@]1(C)O [Azithromycin] | 1 µg/mL (≈ 1.34 µM) | 2 µg/mL (≈ 2.67 µM) | 2 µg/mL (≈ 2.67 µM) | 16 µg/mL (≈ 21.4 µM) | 32 µg/mL (≈ 42.7 µM) | 1 µg/mL (≈ 1.34 µM) | 32 µg/mL (≈ 42.7 µM) | 1 µg/mL (≈ 1.34 µM) |  |  |  |  |  |  |  |  | 
2 | CC(C)(O/N=C(\C(=O)N[C@@H]1C(=O)N2C(C(=O)[O-])=C(C[n+]3ccccc3)CS[C@H]12)c1csc(N)n1)C(=O)O [CAZ, ceftazidime] | 0.5 µg/mL (≈ 0.915 µM) | 256 µg/mL (≈ 468 µM) | 256 µg/mL (≈ 468 µM) | 1 µg/mL (≈ 1.83 µM) | > 256 µg/mL | > 256 µg/mL | 128 µg/mL (≈ 234 µM) | 64 µg/mL (≈ 117 µM) |  |  |  |  |  |  |  |  | 
3 | O=C(N[C@H](CO)[C@H](O)c1ccc([N+](=O)[O-])cc1)C(Cl)Cl [Chloramphenicol] | 1 µg/mL (≈ 3.09 µM) | > 64 µg/mL | 1 µg/mL (≈ 3.09 µM) | > 64 µg/mL | > 64 µg/mL | 2 µg/mL (≈ 6.19 µM) | > 64 µg/mL | 1 µg/mL (≈ 3.09 µM) |  |  |  |  |  |  |  |  | 
4 | NC[C@@H](O)CNS(=O)(=O)c1ccc(-n2ccnc2)c(-c2nn[nH]n2)c1S(N)(=O)=O [Example 41, (R)—N1-(3-amino-2-hydroxypropyl)-4-(1H-imidazol-1-yl)-3-(2H-tetrazol-5-yl)benzene-1,2-disulfonamide] |  |  |  |  |  |  |  |  | 0.66 nM | 2.97 nM | 1.05 nM | 0.96 nM | 0.78 µM | 1.56 µM | 0.78 µM | 1.56 µM | 0.78 µM
5 | C[C@@H](O)[C@H]1C(=O)N2C(C(=O)O)=C(SCCN=CN)C[C@H]12 [Imipenem] | 2 µg/mL (≈ 6.68 µM) | 64 µg/mL (≈ 214 µM) | 32 µg/mL (≈ 107 µM) | 4 µg/mL (≈ 13.4 µM) | > 64 µg/mL | 64 µg/mL (≈ 214 µM) | > 64 µg/mL | 32 µg/mL (≈ 107 µM) |  |  |  |  |  |  |  |  | 
6 | C[C@@H](O)[C@H]1C(=O)N2C(C(=O)O)=C(S[C@@H]3CN[C@H](C(=O)N(C)C)C3)[C@H](C)[C@H]12 [Meropenem] | 0.5 µg/mL (≈ 1.3 µM) | > 64 µg/mL | 64 µg/mL (≈ 167 µM) | 2 µg/mL (≈ 5.22 µM) | > 64 µg/mL | 64 µg/mL (≈ 167 µM) | > 64 µg/mL | 32 µg/mL (≈ 83.4 µM) |  |  |  |  |  |  |  |  | 
7 | CCN1CCN(C(=O)N[C@@H](C(=O)N[C@@H]2C(=O)N3[C@@H]2SC(C)(C)[C@@H]3C(=O)O)c2ccccc2)C(=O)C1=O [Pipercillin] | 1 µg/mL (≈ 1.93 µM) | 4 µg/mL (≈ 7.73 µM) | 4 µg/mL (≈ 7.73 µM) | 2 µg/mL (≈ 3.86 µM) | > 256 µg/mL | 128 µg/mL (≈ 247 µM) | > 256 µg/mL | 128 µg/mL (≈ 247 µM) |  |  |  |  |  |  |  |  | 

Source: patent US20200375987A1, “METALLO-BETA-LACTAMASE INHIBITORS AND METHODS OF USE THEREOF” (priority 2018, published 2020)
